This note sets out measurements from PMC9457600, “Synthesis, Leishmanicidal, Trypanocidal, Antiproliferative Assay and Apoptotic Induction of (2-Phenoxypyridin-3-yl)naphthalene-1(2H)-one Derivatives” (Molecules, 2022).

The subject of data set [1] is promastigotes of Leishmania (V.) braziliensis strain MHOM/CO/87/UA301. Put plainly: MTT viability of L. braziliensis promastigotes. In kind it is cell-based.
Description: Promastigotes of Leishmania (V.) braziliensis strain MHOM/CO/87/UA301 were isolated from footpad lesions in Balb/C mice previously infected. In the process of maintenance and differentiation of the parasites, the LTI medium (tryptose 15 g/L, yeast extract 5 g/L, liver extract 2 g/L, hemin-NaOH 0.02 g/L, glucose 4 g/L, NaCl 9 g/L, KCl 0.4 g/L Na2HPO4, 7.5 g/L at pH 7.4) supplemented with 10% fetal calf serum and maintained at 29 °C was used.
Briefly, 96-well plates were used, where 2 × 10^6 parasites/mL were seeded. A concentration of 50 μM was used for each compound and an incubation time of 96 h at 29 °C. 3-(4,5-dimethylthiazol-2-yl)-2,5-diphenyl tetrazolium bromide (MTT) 1 μg/mL was added and incubated in darkness for 4 h, acidic isopropanol (4N) was added and the plate was read at 570 nm in a spectrophotometer Synergy HT (Biotek). Miltefosine was used as a reference drug. The EC50 calculation of the selected compound was performed using growth curves. Direct counting was used to monitor the proliferation of parasites, three independent experiments were performed for each concentration of the compounds evaluated. The in vitro evaluations of compounds toxicity by MTT in VERO and BMDM cells follow a methodology described above with some modifications [60].
In the next data set the test system is BMDM macrophages. Put plainly: MTT cytotoxicity on BMDM macrophages. The class given is cell-based. The settings on record: Mus musculus, 72 h. An excerpt:
(§1) T. cruzi epimastigotes MHOM/VE/92/YBM venezuelan strain were used to test the anti T. cruzi in vitro studies. The strain was maintained in a modified LIT medium with 10% fetal bovine serum (FBS). Mouse bone marrow was used to obtain BMDM macrophages. Mouse fibroblast-conditioned medium L-929 was used for the differentiation and maintenance of BMDM macrophages. We evaluated through a colorimetric method the effect of compounds 8–23 on the promastigotes of L. brasiliensis. Briefly, 96-well plates were used, where 2 × 10^6 parasites/mL were seeded. A concentration of 50 μM was used for each compound and an incubation time of 96 h at 29 °C. 3-(4,5-dimethylthiazol-2-yl)-2,5-diphenyl tetrazolium bromide (MTT) 1 μg/mL was added and incubated in darkness for 4 h, acidic isopropanol (4N) was added and the plate was read at 570 nm in a spectrophotometer Synergy HT (Biotek). Miltefosine was used as a reference drug. The EC50 calculation of the selected compound was performed using growth curves. Direct counting was used to monitor the proliferation of parasites, three independent experiments were performed for each concentration of the compounds evaluated. The in vitro evaluations of compounds toxicity by MTT in VERO and BMDM cells follow a methodology described above with some modifications. The selectivity index was calculated with SI = CC50/EC50, where CC50 was the maximum concentration range of compounds 10, 21–23 used to evaluate cytotoxicity in VERO and BMDM cells. The trypanocidal activity of compounds 8–23 was evaluated on the viability of T. cruzi epimastigotes through a colorimetric method adapted with minor modifications. 2 × 10^6 parasites/mL were seeded in a 96-well plate, adding 50 μM of each derivative dissolved in DMSO (final concentration remained below 1%). The plate was incubated for 96 h at 29 °C. Then, 1 μg/mL of 3-(4,5-dimethylthiazol-2-yl)-2,5-diphenyl tetrazolium bromide (MTT) was added and incubated in darkness for 4 h. After this time, acidic isopropanol (4N) was added and the plate was read at 570 nm in a spectrophotometer Synergy HT (Biotek). Benznidazole was used as a reference drug. The in vitro evaluations of compounds toxicity by MTT in VERO and BMDM cells follow a methodology described above with some modifications. Cells were counted in suspension and seeded at 20 × 10^3 cells/well. The test was carried out in triplicate on 96-well microplates in different concentrations: 50 μM, 100 μM, 200 μM and 300 μM, untreated cells and reference drug (benznidazole) controls.

Data set [2] deals with epimastigotes of Trypanosoma cruzi strain MHOM/VE/92/YBM. Put plainly: MTT viability of T. cruzi epimastigotes. In kind it is cell-based. The settings on record: for EC50: 72 h, epimastigotes.
A further data set relates to VERO cells. Put plainly: MTT cytotoxicity on VERO cells. In kind it is cell-based, African green monkey. The note with it: Chlorocebus sabaeus, 72 h. As for the experimental part:
as §1, with “Vero cells” for “T. cruzi epimastigotes MHOM/VE/92/YBM venezuelan strain”, “derived from” for “used to test”, “kidney of an African green monkey, cells were” for “anti T. cruzi in vitro studies. The strain was”, “Dulbecco’s Modified Eagle’s Medium (DMEM), supplemented” for “a modified LIT medium”, “heat-inactivated FBS” for “fetal bovine serum (FBS). Mouse bone marrow was used to obtain BMDM macrophages. Mouse fibroblast-conditioned medium L-929 was used for the differentiation”, “penicillin-streptomycin solution 1% at 37 °C, 5% CO2 atmosphere and > 95% humidity.” for “maintenance of BMDM macrophages.”

The next data set deals with CCRF-CEM. Kind of data set: MTS antiproliferative assay CCRF-CEM. In kind it is cell-based. The settings on record: Homo sapiens, 72 h of incubation. An excerpt:
(§2) The cell lines used were acquired from the American Type Culture Collection (ATCC), CCRF-CEM (T lymphoblastic leukemia), K562 ([…]), U2OS (osteosarcoma), HCT116 (colon carcinoma), A549 (lung adenocarcinoma) and HCT116p53−/− (HCT116 cell line mutated in p53) Horizon Discovery Ltd., (Waterbeach, Cambridge, United Kingdom).
(§3) In our laboratory, IMTM, we generated the daunorubicin-resistant subline of CCRF-CEM cells (CEM-DNR bulk) and paclitaxel-resistant subline K562-TAX, as described previously. […] Both ABC transporters are involved in drug resistance. As a control, human fibroblasts MRC-5 and BJ cell lines were used. […] Adherent cells were passaged using PBS containing 0.25% trypsin plus 0.01% EDTA (ethylenediamine tetraacetic acid) every 2–3 days.
(§4) The antiproliferative activity of compounds was determined using a standard 3-(4,5-dimethylthiazol-2yl)-5-(3-carboxymethoxyphenyl)-2-(4-sulfophenyl)-2H-tetrazolium (MTS) reduction assay on a robotic high throughput screening platform (HighResBio, Boston, MA, USA) following treatment of cells for 3–7 days. The IC50 values were calculated from the appropriate dose–response curves with Dotmatics software (San Diego, CA, USA).
(In general: Formazan colour is commonly taken as a measure of viable cells.)

The next data set deals with CEM-DNR. Kind of data set: MTS antiproliferative assay CEM-DNR. In kind it is cell-based. The note with it: Homo sapiens, 72 h of incubation, daunorubicin-resistant.
Description: as §2, §3, §4

In another data set the test system is K562. Kind of data set: MTS antiproliferative assay K562. The class given is cell-based, human. The note with it: Homo sapiens, K562, 72 h, 72 h of incubation.
Description: as §2, §3, §4

Another data set concerns K562-TAX. Kind of data set: MTS antiproliferative assay K562-TAX. The note with it: Homo sapiens, K562-Tax, 72 h, 72 h of incubation; paclitaxel-resistant. In kind it is cell-based, human.
Description: as §2, §3, §4

The test system of a further data set is A549. Kind of data set: MTS antiproliferative assay A549. In kind it is cell-based, human. The note with it: Homo sapiens, A549, 72 h, 72 h of incubation.
Description: as §2, §3, §4

The next data set concerns HCT-116. Kind of data set: MTS antiproliferative assay HCT116. The note with it: Homo sapiens, 72 h of incubation. The class given is cell-based.
Description: as §2, §3, §4

Another data set deals with HCT116p53−/−. Kind of data set: MTS antiproliferative assay HCT116p53-/-. The class given is cell-based. The settings on record: Homo sapiens; 72 h of incubation.
Description: as §2, §3, §4

Another data set concerns U2OS. Kind of data set: MTS antiproliferative assay U2OS. The class given is cell-based. The settings on record: Homo sapiens, 72 h of incubation.
Description: as §2, §3, §4

Another data set has as its system MRC-5. Kind of data set: MTS assay on non-malignant MRC-5. The class given is cell-based. The settings on record: MRC5; noncancerous human cell line. As for the experimental part: as §3, §4
A further data set deals with BJ. Put plainly: MTS assay on non-malignant BJ. The class given is cell-based. The settings on record: noncancerous human cell line. As for the experimental part:
as §3, §4

Structures are written as SMILES.

As for `CCCCCCCCCCCCCCCCOP(=O)([O-])OCC[N+](C)(C)C` [Mil, miltefosine, reference compound], the EC50 (as a rule, the concentration needed to bring the measured effect to its halfway point) is 25 ± 1.4 µM in data set [1] (72 h, promastigotes) and 125 ± 4.7 µM with BMDM macrophages. Further, the “SIB/Lb selectivity index on L. braziliensis/BMDM” value in data set [1] (SI = CC50/EC50) was determined as 5.
For the compound `COc1cccc2c1CC/C(=C\c1cccnc1Oc1ccccc1)C2=O` [Compound 9, (E)-3,4-Dihydro-5-methoxy-2-[(2-phenoxypyridin-3-yl)methylene]naphthalen-1(2H)-one], the half-maximal effective concentration (EC50) in [1] (72 h, promastigotes) was not below 60 µM; in data set [1] (promastigotes, 72 h), more than 60 µM; in [2] (Trypanosoma cruzi) it was more than 60 µM; with VERO cells, less than 100 µM; in the data set with BMDM macrophages it was more than 1000 µM. Further, the IC50 – broadly, the point on the concentration scale where inhibition reaches its midpoint – with CCRF-CEM is 6.15 ± 0.84 µM; with CEM-DNR it was 26.3 ± 7.95 µM; in the data set with K562, 19.6 ± 3.67 µM; in the data set on K562-TAX it was 24.1 ± 6.02 µM; in the data set with A549 it was 30 ± 5.83 µM; in the data set with HCT-116, 24.8 ± 3.77 µM. Also, the 50% inhibitory concentration (IC50) was 20.2 ± 3.1 µM in the data set with HCT116p53−/−, 19.6 ± 3.65 µM in the data set on U2OS, more than 50 µM with MRC-5 and more than 50 µM with BJ.
As to `O=C1/C(=C/c2cccnc2Oc2ccccc2)CCc2ccccc21` [Compound 8, (E)-3,4-Dihydro-2-[(2-phenoxypyridin-3-yl)methylene]naphthalen-1(2H)-one], the concentration giving a half-maximal response (EC50) in data set [1] (72 h, promastigotes) is not above 60 µM; in data set [1] (promastigotes, 72 h), 57.6 ± 1.62 µM; in data set [2] (Trypanosoma cruzi), more than 60 µM; with VERO cells it was more than 100 µM; with BMDM macrophages, more than 1000 µM. Besides, the half-inhibitory concentration (IC50) was 4.15 ± 0.74 µM in the data set on CCRF-CEM; 38.2 ± 6.26 µM in the data set with CEM-DNR; more than 50 µM in the data set on K562; 20 ± 2.16 µM in the data set on K562-TAX; more than 50 µM with A549; more than 50 µM in the data set with HCT-116. Besides, the concentration for half-maximal inhibition (IC50) with HCT116p53−/−, with U2OS, in the data set on MRC-5 and with BJ was more than 50 µM throughout.
As to `O=C(Cn1ccnc1[N+](=O)[O-])NCc1ccccc1` [Bnz, benznidazole, reference compound], the “SIV/Tc selectivity index on T. cruzi/VERO” value in data set [2] (SI = CC50/EC50) is listed as 4. The EC50 in data set [2] (Trypanosoma cruzi) was 30 ± 0.7 µM; in the data set with VERO cells, 120 ± 2.3 µM.
Regarding `COc1ccc2c(c1)C(=O)/C(=C/c1cccnc1Oc1ccc(Br)cc1)CC2` [Compound 19, (E)-2-{[2-(4-Bromophenoxy)pyridin-3-yl]methylene}-3,4-dihydro-7-methoxynaphthalen-1(2H)-one], the melting point – broadly, the temperature of the solid-liquid transition – was in the range of 144 to 146 °C. This compound also registered an EC50 in data set [1] (72 h, promastigotes) not above 60 µM. The EC50 in [1] (promastigotes, 72 h) came to 44.6 ± 1.15 µM. In data set [2] (Trypanosoma cruzi), this compound showed an EC50 of more than 100 µM. Further, the IC50 in the data set on CCRF-CEM is 12.9 ± 2.43 µM. The compound further had a half-maximal inhibitory concentration (IC50) in the data set with CEM-DNR of 20 ± 3.99 µM. For the same compound, the 50% inhibitory concentration (IC50) in the data set with K562 was 43 ± 5.1 µM. Moreover, 4.17 ± 2.93 µM corresponded to half-maximal inhibition in the data set on K562-TAX (IC50). This compound also yielded an IC50 in the data set on A549 of more than 50 µM. The compound further had an IC50 in the data set with HCT-116 of more than 50 µM. In the data set on HCT116p53−/−, the IC50 is more than 50 µM. Also, in the data set on U2OS, the IC50 was more than 50 µM. The compound further came in with a 50% inhibitory concentration (IC50) in the data set with MRC-5 of more than 50 µM. In addition, in the data set with BJ, the IC50 is more than 50 µM.
As for `COc1cccc2c1CC/C(=C\c1cccnc1Oc1ccc(Cl)cc1)C2=O` [Compound 21, (E)-2-{[2-(4-Chlorophenoxy)pyridin-3-yl]methylene}-3,4-dihydro-5-methoxynaphthalen-1(2H)-one], the EC50 in [1] (72 h, promastigotes) was 9.24 ± 1 µM; in data set [2] (Trypanosoma cruzi), less than 60 µM; in [2], 35.5 ± 10 µM; with VERO cells it was 103 ± 15 µM; with BMDM macrophages it was more than 1000 µM. In addition, the IC50 is 10.4 ± 2.46 µM in the data set with CCRF-CEM; 35.8 ± 4.25 µM in the data set with CEM-DNR; 32.7 ± 3.67 µM in the data set on K562; 23.6 ± 8.79 µM in the data set on K562-TAX; 46.9 ± 4.02 µM with A549; 38.1 ± 5.44 µM with HCT-116. Besides, the half-inhibitory concentration (IC50) is 31.1 ± 4.45 µM in the data set on HCT116p53−/−, 46.8 ± 4.26 µM in the data set with U2OS, more than 50 µM in the data set on MRC-5 and more than 50 µM with BJ.
